Experimental data taken from ChEMBL document CHEMBL1147717, “Development of activity-based probes for trypsin-family serine proteases” (Bioorg Med Chem Lett, 2006).

Key:
Tryptase beta-1 = Tryptase beta-1 (Homo sapiens, UniProt Q15661); assay: Inhibition of beta tryptase; details: read-out: Ki app
Prothrombin = Prothrombin (Homo sapiens, UniProt P00734); assay: Inhibition of thrombin; details: read-out: Ki app
Trypsin = Trypsin (Homo sapiens, UniProt P07477+P07478+P35030); assay: Inhibition of trypsin; assay type: protein assay
Plasminogen = Plasminogen (Homo sapiens, UniProt P00747); assay: Inhibition of plasmin; details: read-out: Ki app
Plasminogen, sequence (P00747 97-580 limits assumed): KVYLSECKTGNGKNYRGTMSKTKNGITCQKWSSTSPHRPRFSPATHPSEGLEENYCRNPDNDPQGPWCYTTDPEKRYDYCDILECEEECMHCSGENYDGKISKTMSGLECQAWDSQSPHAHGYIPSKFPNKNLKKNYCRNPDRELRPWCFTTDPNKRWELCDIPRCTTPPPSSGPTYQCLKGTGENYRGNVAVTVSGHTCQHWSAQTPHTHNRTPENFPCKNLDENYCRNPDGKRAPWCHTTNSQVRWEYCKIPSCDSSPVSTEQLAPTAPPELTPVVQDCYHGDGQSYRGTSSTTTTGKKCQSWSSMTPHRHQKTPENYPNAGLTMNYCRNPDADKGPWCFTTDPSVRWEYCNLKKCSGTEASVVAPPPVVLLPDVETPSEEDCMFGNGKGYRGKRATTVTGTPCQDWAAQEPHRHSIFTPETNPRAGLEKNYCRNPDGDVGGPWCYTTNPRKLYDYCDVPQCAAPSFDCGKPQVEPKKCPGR
Plasminogen, sequence (P00747 581-810 limits assumed): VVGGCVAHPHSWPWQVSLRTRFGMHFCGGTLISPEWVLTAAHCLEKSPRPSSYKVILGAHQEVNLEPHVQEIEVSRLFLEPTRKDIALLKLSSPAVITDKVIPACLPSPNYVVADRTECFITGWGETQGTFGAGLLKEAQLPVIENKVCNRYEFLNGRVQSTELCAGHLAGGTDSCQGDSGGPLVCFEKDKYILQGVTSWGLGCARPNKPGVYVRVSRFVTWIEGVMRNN

Tryptase beta-1, sequence (Q15661 whole entry): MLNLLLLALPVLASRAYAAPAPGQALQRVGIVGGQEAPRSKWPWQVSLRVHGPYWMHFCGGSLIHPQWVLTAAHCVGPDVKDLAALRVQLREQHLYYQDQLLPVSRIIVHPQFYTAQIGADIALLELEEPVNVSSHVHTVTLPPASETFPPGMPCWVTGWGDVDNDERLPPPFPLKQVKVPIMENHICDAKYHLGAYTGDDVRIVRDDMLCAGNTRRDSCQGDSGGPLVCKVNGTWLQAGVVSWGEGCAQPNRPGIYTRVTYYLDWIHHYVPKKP

| Structure (SMILES) | Ki (Tryptase beta-1) | Ki (Prothrombin) | Ki app (Trypsin) | Ki (Plasminogen) |
| --- | --- | --- | --- | --- |
| NCCCC[C@@H](NC(=O)[C@@H]1CCCN1C(=O)CCOCCOCCOCCOCCNC(=O)CCCC[C@@H]1SC[C@@H]2NC(=O)N[C@@H]21)P(=O)(Oc1ccccc1)Oc1ccccc1 | 6200 nM | 1070 nM | 570 nM | 2900 nM |
| NCCCC[C@@H](NC(=O)[C@H](CC(N)=O)NC(=O)CCOCCOCCOCCOCCNC(=O)CCCC[C@@H]1SC[C@@H]2NC(=O)N[C@@H]21)P(=O)(Oc1ccccc1)Oc1ccccc1 | 2500 nM | > 100000 nM | 57300 nM | 4030 nM |
